Test results from article PMC12828148, “Engineered cyclic peptide targeting ITGA5 disrupts tumor–stroma interaction to overcome desmoplasia and resistance in pancreatic ductal adenocarcinoma” (Acta Pharmaceutica Sinica. B, 2025).
Peptide text beside a SMILES is read from it.

Columns and labels:
TGF-β treated PSCs = test: Cell adhesion competition study (PSC attachment to FN-coated plate, crystal violet); assay type: cell-based, human; conditions: 50 μmol/L peptide, 30 min pre-incubation 37 °C, 1 h attachment, crystal violet absorbance 600 nm, n = 3
Procedure: To analyze the interaction of PSC and FN, a 96 suspension well plate was coated with 100 μL FN (Advanced Biomatrix, Carlsbad, CA, USA) at 1 μg/mL by overnight incubation at 4 °C. Next, the plate was washed with DPBS (Lonza) and blocked with 5% bovine serum albumin (BSA) in DPBS for at least 1 h at RT. In the meantime, a cell suspension of 200,000 cells/mL of TGF-β treated PSCs in DPBS with 2 mmol/L Ca^2+ and 2 mmol/L Mg^2+ was treated with 50 μmol/L AV3.3 or cyAV3.3 and incubated for 30 min at 37 °C. After washing the plate with DPBS, 100 μL cell suspension was added to each well and then set to rest for 1 h at RT. The plate was then washed with DPBS to remove unattached cells. […] Next, cells were stained with 0.1% (w/v) crystal violet (Sigma) in 25% methanol at RT. After 20 min, cells were washed with water and lysed with 0.5% (w/v) SDS. The degree of cell attachment was measured by the absorbance of the crystal violet at 600 nm using Tecan Infinite M200 plate reader (Tecan, Mannendorf, Switzerland). In other plate, cells were washed with DPBS after fixation and then stained with DAPI. Images were developed using EVOS fluorescence microscope (Thermo Scientific).

[1] = Peptide stability in human plasma; assay type: in vitro ADME; conditions: 20 µmol/L peptide, 50% human plasma, 37 °C, 1, 2 and 24 h, TCA precipitation, RP-HPLC UV 280 nm
Procedure: (§1) To evaluate the stability, 20 µmol/L peptide was incubated in 50% human plasma at biological temperature 37 °C for 1, 2, and 24 h. After incubation, plasma was precipitated by adding equal volume of 4% trichloroacetic acid (TCA) and rested on ice for 10 min. As control (or 0h), precipitation was performed immediately after mixing the peptide and plasma. Supernatant was collected after centrifugation at 13,300 × g and assessed using reversed phase high performance liquid chromatography (HPLC) with 5%, 95%, and 99.9% acetonitrile in de-gassed water with 0.1% trifluoroacetic acid as eluents. The remaining peptide was analyzed at a wavelength 280 nm.
Quantitative real-time PCR […]
The next day, the medium […]
was changed with 0% FBS Stellate Cell medium to starve hPSCs for 24 h. Subsequently, hPSCs were incubated with 5 ng/mL TGF-β1 and peptide for 48 h to examine the effect on protein expression of different markers such as α-SMA and collagen-1. Cells were lysed using 1× blue loading buffer containing 1× DTT reducing agent (Cell Signaling Technology) and homogenized using ultrasonication. Protein lysates were separated on a 4%–20% Tris-Glycine gel (Thermo Scientific) and then transferred onto a PVDF membrane (Thermo Scientific). […]

hPSCs = test: Cell viability, Alamar blue assay; assay type: cell-based, human
Procedure: We investigated the inhibitory effect of both cyclic and linear peptides on PSC activation and signaling. To achieve this, PSCs were seeded and treated with TGF-β and peptides for 48 h (protein expression) or 24 h (gene expression). We also tested the effect of the peptide on the cell viability using Alamar blue assay and found no toxicity (Supporting Information Fig. S3A). […] To quantitate that, we performed Western blot analysis and confirmed the observed effect via immunostaining (Fig. 2B and C; Fig. S3B). The details of the antibodies used can be found in Supporting Information Table S2. […] After obtaining these effects, we focused on cyAV3.3 and examined its inhibitory effects on TGF-β1-stimulated PSCs using qPCR and an RT[2] profiler PCR array for ECM and adhesion receptors (Fig. 2D). […] The details of primers for all genes can be found in Supporting Information Table S3. […] In contrast, cyAV3.3 induced the gene expression of ECM-degrading proteins such as MMP10 and ADAMTS-13 (Supporting Information Fig. S4).

[2] = tested on: hPSC activated with TGF-β; test: Inhibition of TGF-β-induced PSC activation (immunocytochemical staining, Western blot); assay type: cell-based, human; conditions: 5 ng/mL TGF-β, 48 h, peptides at 20 and 50 μmol/L
Procedure: secondary peroxidase labeled antibody was added and incubated for 1 h at RT. The HRP signal was developed using standard chemiluminescence kit and the signal was measured.
as §1
Quantitative real-time PCR
To examine the effect of peptides on the gene expression of hPSC activation markers, cells were seeded into a 12 well plate at a seeding density of 50,000 cells/well. After overnight incubation, cells were starved for 24 h, then treated with human recombinant 5 ng/mL TGF-β (Peprotech, Hamburg, Germany) and […] peptide. After 24 h of the incubation, cells were lysed and total RNA was isolated using GenElute™ Mammalian Total RNA Miniprep Kit (Sigma–Aldrich) and the RNA concentration was measured using a NanoDrop® ND-1000 Spectrophotometer (Thermo Scientific, Waltham, USA). cDNA was synthesized with iScript™ cDNA Synthesis Kit (BioRad, Veenendaal, The Netherlands), and 10 ng cDNA was used for each PCR reaction. […] Quantitative real time PCR was performed with 2× SensiMix SYBR and Fluoroscein Kit (Bioline GmbH, Luckenwalde, Germany) using a BioRad CFX384 Real-Time PCR detection system (BioRad). […]
To evaluate the effect of peptides on the protein expression of hPSC activation markers, hPSCs were seeded into a 12 well plate at seeding density 50,000 cells/well. […] Proteins were detected with […]
medium. […] Images were analyzed using […]
secondary fluorescence-labeled antibody diluted in PBS. […]

SMILES: C[C@@H]1NC(=O)[C@H](CCCNC(=N)N)NC(=O)[C@H](Cc2ccc(O)cc2)NC(=O)[C@H](Cc2ccc(O)cc2)NC(=O)[C@H](CCCNC(=N)N)NC(=O)CNC(=O)[C@H](CCCCN)NC(=O)[C@H](Cc2ccc(O)cc2)NC(=O)[C@H]([C@@H](C)O)NC1=O [cyAV3.3] (cyclo(ATYKGRYYR))
- blocking of the binding of PSC to FN (TGF-β treated PSCs): blocked the binding of PSC to FN significantly higher than AV3.3
- stability of the peptides in human plasma [1]: significant improvement in the stability
- effect on cell viability (hPSCs): no toxicity
- inhibition of downstream signaling p-FAK ([2]; Western blot): more inhibition
- inhibition of PSC activation by TGF-β1 (expression of α-SMA and collagen-1) ([2]; immunostaining and Western blot): much stronger than AV3.3
